Patent US11578061B2, “Inhibitors of LRRK2 kinase” (Halia Therapeutics, Inc., priority 2021, dated 2023)
pIC50: −log10 of the molar value.

These compounds were tested against recombinant human LRRK2 (catalytic domain only [amino acids 970-2527], GST-tagged) (Homo sapiens (Human), UniProt Q5S007) (assay: LRRK2 Enzymatic Assay). Details: LRRKtide substrate, [32P]-ATP.
Sequence of recombinant human LRRK2 (catalytic domain only [amino acids 970-2527], GST-tagged) (Q5S007 970-2527): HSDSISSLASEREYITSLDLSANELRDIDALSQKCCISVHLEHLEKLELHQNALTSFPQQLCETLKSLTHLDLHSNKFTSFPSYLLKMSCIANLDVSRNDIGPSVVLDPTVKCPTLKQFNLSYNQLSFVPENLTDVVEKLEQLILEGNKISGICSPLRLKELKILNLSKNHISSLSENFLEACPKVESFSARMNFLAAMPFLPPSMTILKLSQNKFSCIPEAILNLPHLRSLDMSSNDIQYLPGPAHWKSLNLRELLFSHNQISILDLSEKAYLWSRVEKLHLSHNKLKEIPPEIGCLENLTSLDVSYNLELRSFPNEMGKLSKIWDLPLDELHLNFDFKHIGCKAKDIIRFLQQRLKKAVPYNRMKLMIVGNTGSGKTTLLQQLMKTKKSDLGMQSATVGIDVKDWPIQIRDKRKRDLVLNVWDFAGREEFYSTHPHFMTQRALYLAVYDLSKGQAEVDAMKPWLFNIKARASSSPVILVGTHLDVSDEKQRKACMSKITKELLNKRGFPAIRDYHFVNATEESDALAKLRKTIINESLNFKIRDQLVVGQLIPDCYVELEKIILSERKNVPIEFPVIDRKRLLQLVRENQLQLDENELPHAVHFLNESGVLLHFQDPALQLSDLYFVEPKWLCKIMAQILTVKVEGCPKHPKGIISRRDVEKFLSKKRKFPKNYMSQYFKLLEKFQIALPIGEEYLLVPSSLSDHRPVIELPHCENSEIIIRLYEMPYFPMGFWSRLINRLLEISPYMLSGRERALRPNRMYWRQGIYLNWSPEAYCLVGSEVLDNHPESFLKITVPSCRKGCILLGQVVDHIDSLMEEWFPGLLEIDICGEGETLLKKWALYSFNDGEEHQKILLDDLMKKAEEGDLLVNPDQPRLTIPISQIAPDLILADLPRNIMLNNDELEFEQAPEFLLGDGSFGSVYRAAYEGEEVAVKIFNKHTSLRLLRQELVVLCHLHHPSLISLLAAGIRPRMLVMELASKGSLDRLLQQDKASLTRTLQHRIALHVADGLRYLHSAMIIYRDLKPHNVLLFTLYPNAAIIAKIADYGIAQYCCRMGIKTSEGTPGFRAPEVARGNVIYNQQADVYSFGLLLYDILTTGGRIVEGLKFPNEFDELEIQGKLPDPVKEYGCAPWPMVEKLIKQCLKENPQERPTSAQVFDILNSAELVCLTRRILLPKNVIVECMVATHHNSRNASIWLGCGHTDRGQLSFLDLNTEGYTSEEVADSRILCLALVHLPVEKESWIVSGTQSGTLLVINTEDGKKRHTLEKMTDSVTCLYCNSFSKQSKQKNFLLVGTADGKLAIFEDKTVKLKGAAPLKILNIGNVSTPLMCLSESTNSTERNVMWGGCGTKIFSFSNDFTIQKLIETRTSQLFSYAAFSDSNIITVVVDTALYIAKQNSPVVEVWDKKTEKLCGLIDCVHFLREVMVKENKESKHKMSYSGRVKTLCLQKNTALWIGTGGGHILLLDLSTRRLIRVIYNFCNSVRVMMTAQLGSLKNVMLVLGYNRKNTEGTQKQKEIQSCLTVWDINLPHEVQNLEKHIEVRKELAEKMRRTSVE
Assay type: biochemical
How it was run: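 Radiometric P81 filter-binding read-out of [32P]-ATP transfer to LRRKtide (20 μM) by 30 nM GST-LRRK2 970-2527, 2 h at room temperature after 20 min compound preincubation (10 μM–0.5 nM, 1% DMSO). IC50 derived from % remaining activity versus DMSO.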
For `CCn1cc(Nc2ncc(F)c(OC[C@H]3CC[C@H](O)CC3)n2)cn1` [Example 217, (1R,4R)-4-(((2-((1-ethyl-1H-pyrazol-4-yl)amino)-5-fluoropyrimidin-4-yl)oxy)methyl)cyclohexan-1-ol], the pIC50 was 6.70 to 7.30. In the case of `FC(F)(F)CN[C@H]1CC[C@H](COc2ccnc(Nc3ccc(N4CCOCC4)cc3)n2)CC1` [Example 104, N-(4-morpholino-phenyl)-4-(((1R,4R)-4-((2,2,2-trifluoroethyl)amino)cyclohexyl)methoxy) pyrimidin-2-amine], the pIC50 was 6.70 to 7.30. `Cc1nn(C2CC2)cc1Nc1ncc(F)c(OC[C@H]2CC[C@H](O)CC2)n1` [Example 231, (1R,4R)-4-(((2-((1-cyclopropyl-3-methyl-1H-pyrazol-4-yl)amino)-5-fluoropyrimidin-4-yl)oxy)methyl)cyclohexan-1-ol] gave a pIC50 of 6.70 to 7.30. Compound `Cc1nn(C(C)(C)C#N)cc1Nc1ncc(F)c(OCC2CCC(OC(C)C)CC2)n1` (racemic) [Example 280, 2-(4-((5-fluoro-4-((4-isopropoxycyclohexyl)methoxy)pyrimidin-2-yl)amino)-3-methyl-1H-pyrazol-1-yl)-2-methylpropanenitrile] has a pIC50 of 6.70 to 7.30. With `Fc1cnc(Nc2ccc(N3CCOCC3)cc2)nc1OCC1CCC(F)(F)CC1` [Example 268, 4-((4,4-difluorocyclohexyl)methoxy)-5-fluoro-N-(4-morpholinophenyl)pyrimidin-2-amine] the pIC50 was 6.70 to 7.30. For `CN[C@H]1CC[C@H](COc2nc(Nc3cn(C(C)(C)C#N)nc3C)ncc2C)CC1` [Example 44, 2-methyl-2-(3-methyl-4-((5-methyl-4-(((1R,4R)-4-(methylamino)cyclo-hexyl)methoxy)py-rimidin-2-yl)amino)-1H-pyrazol-1-yl)propanenitrile], the pIC50 was greater than 7.30. Compound `CC(=O)N[C@H]1CC[C@H](COc2nc(Nc3cnn(C4COC4)c3)ncc2F)CC1` [Example 192, N-((1R,4R)-4-(((5-fluoro-2-((1-(oxetan-3-yl)-1H-pyrazol-4-yl)amino)pyrimidin-4-yl)oxy)methyl)cyclo-hexyl)acetamide] has a pIC50 of 6.70 to 7.30. For `CC(=O)NC12C3C4C1C1C2C3C41COc1ccnc(Nc2ccc(N3C[C@@H](C)O[C@@H](C)C3)cc2)n1` (stereo partly drawn) [Example 79, N-(4-(((2-((4-((2S,6R)-2,6-dimethylmorpholino)phenyl)amino)py-rimidin-4-yl)oxy)methyl)cuban-1-yl)acetamide], the pIC50 was 6.40 to 6.70. With `CN[C@H]1CC[C@H](COc2nc(Nc3cc(F)c(C(=O)N4CCOCC4)cc3OC)ncc2OC)CC1` [Example 36] the pIC50 was greater than 7.30. Compound `OC1CCC(COc2nc(Nc3ccc(N4CCOCC4)cc3)ncc2F)CC1` (stereo not shown) [Example 123, 4-(((5-fluoro-2-((4-morpholinophenyl)amino)pyrimidin-4-yl)oxy)methyl)cyclohexan-1-ol] has a pIC50 of 6.70 to 7.30. `CC(=O)N[C@H]1CC[C@H](COc2nc(Nc3cnn(C(C)(C)C#N)c3C)ncc2F)CC1` [Example 199, N-((1R,4R)-4-(((2-((1-(2-cyanopropan-2-yl)-5-methyl-1H-pyrazol-4-yl)amino)-5-fluoropyrimidin-4-yl)oxy)methyl)cyclo-hexyl)acetamide] was tested, and the pIC50 was greater than 7.30. For `O=C(N1CCC(COc2nc(Nc3ccc(N4CCOCC4)cc3)ncc2Cl)CC1)C(F)(F)F` [Example 112, 1-(4-(((5-chloro-2-((4-morpholino-phenyl)amino)pyrimidin-4-yl)oxy)methyl)piperidin-1-yl)-2,2,2-trifluoro-ethan-1-one], the pIC50 was 6.70 to 7.30. For `OC1CCC(COc2ccnc(Nc3ccc(N4CCOCC4)cc3)n2)CC1` (stereo not shown) [Example 117, 4-(((2-((4-morpholinophenyl)amino)pyrimidin-4-yl)oxy)methyl)cyclohexanol], the pIC50 was 6.40 to 6.70. Compound `Cc1nn(C(C)(C)C#N)cc1Nc1ncc(Cl)c(OCC2CNC2)n1` [Example 27, 2-(4-((4-(azetidin-3-ylmethoxy)-5-chloropyrimidin-2-yl)amino)-3-methyl-1H-pyrazol-1-yl)-2-methylpropanenitrile] has a pIC50 of less than 6.40. Compound `Cc1c(Nc2ncc(Cl)c(OCC3CCN(C)CC3)n2)cnn1C1CC(C#N)C1` (stereo not shown) [Example 58, 3-(4-((5-chloro-4-((1-methylpiperidin-4-yl)methoxy)pyrimidin-2-yl)amino)-5-methyl-1H-pyrazol-1-yl)cyclobutane-1-carbonitrile] has a pIC50 greater than 7.30. Work on `O=C(N[C@H]1CC[C@H](COc2ccnc(Nc3ccc(N4CCOCC4)cc3)n2)CC1)C(F)(F)F` [Example 98, 2,2,2-trifluoro-N-((1R,4R)-4-(((2-((4-morpholino-phenyl)amino)pyrimidin-4-yl)oxy)methyl)cyclohexyl) acetamide] yielded a pIC50 of 6.70 to 7.30. In the case of `CC(=O)N[C@H]1CC[C@H](COc2nc(Nc3cn(C4CC4)nc3C)ncc2F)CC1` [Example 196, N-((1R,4R)-4-(((2-((1-cyclopropyl-3-methyl-1H-pyrazol-4-yl)amino)-5-fluoropyrimidin-4-yl)oxy)methyl)cyclo-hexyl)acetamide], the pIC50 was greater than 7.30. `Cc1nn(C(C)(C)C#N)cc1Nc1ncc(F)c(OCC2CCC(C)(O)CC2)n1` (stereo not shown) [Example 253, 2-(4-((5-fluoro-4-((4-hydroxy-4-methylcyclohexyl)methoxy)pyrimidin-2-yl)amino)-3-methyl-1H-pyrazol-1-yl)-2-methylpropanenitrile] gave a pIC50 greater than 7.30. `Cc1nn(C(C)C)cc1Nc1ncc(F)c(OC[C@H]2CC[C@H](NC(=O)C(F)(F)F)CC2)n1` [Example 211, 2,2,2-trifluoro-N-((1R,4R)-4-(((5-fluoro-2-((1-isopropyl-3-methyl-1H-pyrazol-4-yl)amino)pyrimidin-4-yl)oxy)methyl)cyclohexyl) acetamide] showed a pIC50 greater than 7.30. With `O[C@H]1CC[C@H](COc2nc(Nc3cnn(C4COC4)c3)ncc2F)CC1` [Example 227, (1R,4R)-4-(((5-fluoro-2-((1-(oxetan-3-yl)-1H-pyrazol-4-yl)amino)pyrimidin-4-yl)oxy)methyl)cyclohexan-1-ol] the pIC50 was 6.40 to 6.70. Compound `CN[C@H]1CC[C@H](COc2ccnc(Nc3cnn(C(C)C)c3)n2)CC1` [Example 33] has a pIC50 of less than 6.40. With `Cc1nn(C(C)(C)C#N)cc1Nc1ncc(F)c(OC[C@H]2CC[C@H](OC(F)F)CC2)n1` [Example 286, 2-(4-((4-(((1R,4R)-4-(difluoromethoxy)cyclohexyl)methoxy)-5-fluoropyrimidin-2-yl)amino)-3-methyl-1H-pyrazol-1-yl)-2-methylpropanenitrile] the pIC50 was 6.70 to 7.30. In the case of `O[C@H]1CC[C@H](COc2nc(Nc3cnn(CC(F)(F)F)c3)ncc2F)CC1` [Example 223, (1R,4R)-4-(((5-fluoro-2-((1-(2,2,2-trifluoroethyl)-1H-pyrazol-4-yl)amino)pyrimidin-4-yl)oxy)methyl)cyclohexan-1-ol], the pIC50 was 6.70 to 7.30. `FC1(F)CCC(COc2nc(Nc3ccc(N4CCOCC4)cc3)ncc2Cl)CC1` [Example 153, 5-chloro-4-((4,4-difluorocyclohexyl)methoxy)-N-(4-morpholinophenyl)pyrimidin-2-amine] was tested, and the pIC50 was 6.70 to 7.30. `CN[C@H]1CC[C@H](COc2ccnc(Nc3cc(F)c(C(=O)N4CCOCC4)cc3OC)n2)CC1` [Example 34, (2-fluoro-5-methoxy-4-((4-(((1R,4R)-4-(methylamino)cyclo-hexyl)methoxy)py-rimidin-2-yl)amino)phenyl) (morpholino) methanone] showed a pIC50 of 6.70 to 7.30. With `CC(=O)N[C@H]1CC[C@H](COc2nc(Nc3ccc(N4CCOCC4)cc3)ncc2C2CC2)CC1` [Example 88, N-((1R,4R)-4-(((5-cyclopropyl-2-((4-morpholinophenyl)amino)pyrimidin-4-yl)oxy)methyl)cyclo-hexyl)acetamide] the pIC50 was 6.70 to 7.30. `CC(C)n1cc(Nc2ncc(F)c(OC[C@H]3CC[C@H](NC(=O)C(F)(F)F)CC3)n2)cn1` [Example 210, 2,2,2-trifluoro-N-((1R,4R)-4-(((5-fluoro-2-((1-isopropyl-1H-pyrazol-4-yl)amino)pyrimidin-4-yl)oxy)methyl)cyclohexyl) acetamide] showed a pIC50 greater than 7.30. `CCc1nn(C)cc1Nc1ncc(F)c(OC[C@H]2CC[C@H](O)CC2)n1` [Example 233, (1R,4R)-4-(((2-((3-ethyl-1-methyl-1H-pyrazol-4-yl)amino)-5-fluoropyrimidin-4-yl)oxy)methyl)cyclohexan-1-ol] gave a pIC50 greater than 7.30. In the case of `CC(C)n1cc(Nc2ncc(F)c(OC[C@H]3CC[C@H](O)CC3)n2)cn1` [Example 218, (1R,4R)-4-(((5-fluoro-2-((1-isopropyl-1H-pyrazol-4-yl)amino)pyrimidin-4-yl)oxy)methyl)cyclohexan-1-ol], the pIC50 was 6.70 to 7.30. Compound `CC(=O)N[C@H]1CC[C@H](COc2nc(Nc3cnn(C(C)C)c3)ncc2F)CC1` [Example 185, N-((1R,4R)-4-(((5-fluoro-2-((1-isopropyl-1H-pyrazol-4-yl)amino)pyrimidin-4-yl)oxy)methyl)cyclo-hexyl)acetamide] has a pIC50 greater than 7.30. For `CC(C)(O)[C@H]1CC[C@H](COc2nc(Nc3ccc(N4CCOCC4)cc3)ncc2F)CC1` [Example 144, 2-((1R,4R)-4-(((5-fluoro-2-((4-morpholinophenyl)amino)pyrimidin-4-yl)oxy)methyl)cyclohexyl)propan-2-ol], the pIC50 was 6.70 to 7.30. `CC(=O)N[C@H]1CC[C@H](COc2nc(Nc3cn(C)nc3Cl)ncc2F)CC1` [Example 201, N-((1R,4R)-4-(((2-((3-chloro-1-methyl-1H-pyrazol-4-yl)amino)-5-fIuoropyrimidin-4-yl)oxy)methyl)cyclo-hexyl)acetamide] showed a pIC50 greater than 7.30. Work on `CC(=O)N1CCC(COc2nc(Nc3cn(C(C)(C)C#N)nc3C)ncc2F)C(F)C1` (single isomer, unassigned) [Example 177, 2-(4-((4-((1-acetyl-3-fluoropiperidin-4-yl)methoxy)-5-fluoropyrimidin-2-yl)amino)-3-methyl-1H-pyrazol-1-yl)-2-methylpropanenitrile] yielded a pIC50 of less than 6.40. For `Cc1cnc(Nc2ccc(N3C[C@@H](C)O[C@@H](C)C3)cc2)nc1OCC1CCC(O)CC1` (stereo partly drawn) [Example 128, 4-(((2-((4-((2S,6R)-2,6-dimethylmorpholino)phenyl)amino)-5-methylpyrimidin-4-yl)oxy)methyl)cyclohexan-1-ol], the pIC50 was greater than 7.30.
